Patent US4857549A, “Antitumor compounds” (priority 1988, dated 1989)
Values joined by “and” are separate entries in the source; they are usually repeats but may differ in a detail not shown here. Equal entries are not always repeated. Where two headings read alike, the source gives them in different places.

How the values were obtained:
ADJ-PC6 Plasmacytoma = test: ADJ-PC6 plasmacytoma assay; conditions: in words
Protocol: Tumor cells are carried by serial sc passage in BALB/c female mice and then collected aseptically on ca. Day 21 and minced in Hank's balanced salt solution. The cells are then dispersed by homogenization in a loose-fitting teflon glass homogenizer, and cell concentration is adjusted to 4×10^6 viable ([…]) cells per ml by hemocytometer counts. A total of 0.5 ml (2×10^6 cells) is implanted sc on the right flank of BALB/c female mice in groups of 8. Treatment is given ip on Days 1-10, and tumors are measured in perpendicular diameters with a vernier caliper on Day 18.
^(b) maximally tolerated dose for BALB/c female mice on an ip qD

[1] = tested on: mammary adenocarcinoma 16/c; test: sc mammary adenocarcinoma 16/c assay
Protocol: The mammary adenocarcinoma 16/c tumor is implanted sc in C3H mice, and the Formula (I) compound is administered ip on days 1, 5, 9, 13 and 17. Tumors are measured 3 weeks after implantation, and activity is assessed by degree of tumor growth inhibition.

[2] = tested on: M5076 reticulum cell sarcoma; test: ip M5076 reticulum cell sarcoma assay in mice; conditions: for ILS max (maximum increase in lifespan): ip M5076 sarcoma mice, slash = separate experiments; for ILS max (maximum increase in lifespan) / MTD (maximally tolerated dose): ip qD × 10; for activity in the ip M5076 reticulum cell sarcoma assay: in words, based on Tables C and D; for MTD (maximally tolerated dose): B6D2F1 female mice
Protocol: (§1) Another chemosensitive tumor model is intraperitoneally (ip) implanted M5076 reticulum cell sarcoma in mice. In this system B6D2F1 female mice are inoculated with 0.5 ml of a 10 percent weight:volume (w:v) brei of M5076 prepared from pooled subcutaneous (sc) tumors excised at about 21 days from c57B1/6 donor mice. Drugs are administered ip. Daily treatment is begun 24 hours after implantation and is continued for ten days. The treatment regimen for M5076 is more prolonged than for P388 because of the slower growth rate and longer control survival time of the M5076 tumor.

B16 melanoma = test: in vivo ip B16 melanoma assay; conditions: Table E, ip qD × 10
Protocol: The cytotoxic activity of several compounds of Formula (I) was evaluated in vivo using B16 melanoma cells according to the following assay:
In this system, groups of eight B6D2F1 mice are inoculated ip with 0.5 ml of a 10% (w:v) brei of B16 melanoma prepared from pooled sc tumors excised at 14.noteq.21 days from C67B1 /6 donor mice. Daily treatment is begun 24 hours after tumor implantation and is continued daily for 10 days. The route of drug administration is ip. The mice are monitored daily for survival for 60 days. Antitumor activity is assessed by prolongation of median survival time.

[3] = tested on: B16 melanoma cells (highly metastatic subline, F10); test: B16 melanoma in vitro cloning (colony forming) assay, 2 hour exposure; assay type: cell-based; conditions: read-out: IC50: concentration which inhibits cloning efficiency of B16 melanoma cells by 50%
Protocol: Initially, the cytotoxic activity of the Formula (I) and Formula (IA) compounds used in the pharmaceutical compositions and methods of treatment of the instant invention was evaluated in vitro using B16 melanoma cells according to the following assay:
B16 melanoma (highly metastatic subline, F10) are used and maintained as monolayer cultures in Minimal Essential Media (Grand Island Biological Co., Grand Island, N.Y. ) supplemented with 10% calf serum, 1% antibiotics in a 5% CO2 humidified incubator at 37° C. Asynchronous populations of cells are harvested and replated to 5000 cells/plate in sterile 60 mm×15 mm petri plates. Plates are incubated overnight to allow attachment of the cells to the plate. Cells are treated with a Formula (I) or Formula (IA) compound or cisplatin under sterile conditions, allowed to react for 2 hours followed by aspiration of medium. Plates are washed one time with 5 ml of phosphate buffered saline (PBS), followed by the addition of 5 ml of fresh media. Plates are incubated for 5 days at 37° in a CO2 incubator. Viability is measured by the ability of a cell to form a colony of greater than 50 cells. Colonies are fixed with 0.5% crystal violet in 95% ethanol. Plates are dried and counted with a Biotran III Automatic Count Totalizer (New Brunswick Scientific Co., Edison, N.J.). Mean and standard deviation of triplicate samples are determined for each drug concentration. The data are analyzed by plotting the log of the survival fraction (number of colonies in drug treated plates/number of colonies in controls) versus the drug concentration.
^(a) concentration which inhibits cloning efficiency of B16 melanoma
cells by 50% on a 2hour exposure.

in vivo = conditions: mouse, ip
[4] = ip M5076 reticulum cell sarcoma assay in mice; conditions: mouse, in vivo, ip
Protocol: as §1

[5] = Table B, ip P388 leukemia mice, ip days 1-5, slash-separated figures are separate experiments, compound 2: 35 experiments
[6] = Table C, compound 2: seven experiments
[7] = Mus musculus, B16, Table AI, Formula (IA)
[8] = Table B, B6D2F1 female mice, ip qD × 5

Compound | ILS (maximum increase in lifespan) (P388 leukemia; [5]) | IC50 ([3]; Table A, Formula (I)) [µM] | IC50 [3, 7] [µM] | MTD (in vivo) [mg/kg] | MTD (maximally tolerated dose) (P388 leukemia; [8]) [mg/kg] | further results
N.N.[Cl][Pt][Cl] [cisplatin, reference compound] |  |  |  |  |  | tumor growth inhibition by positive control (ADJ-PC6 Plasmacytoma): complete tumor growth inhibition; inhibition of growth of mammary adenocarcinoma 16/c by positive control ([1]; in words, generally produced): complete inhibition; activity of positive control in ip M5076 ([2]; all experiments, active = average ≥25 percent ILS): active in all experiments
[Br][Au][PH](CC[PH]([Au][Br])(c1ccccc1)c1ccccc1)(c1ccccc1)c1ccccc1 [Compound 15] | 116% and 80% |  |  |  |  | MTD (maximally tolerated dose) (B16 melanoma; B6D2F1 mice): 13 um/kg; ILS (maximum increase in lifespan) (B16 melanoma; ip B16 melanoma mice, slash = separate experiments): 49% and 41%; MTD (maximally tolerated dose) ([1]; Table F, C3H mice, intermittent ip regimen): 26 um/kg; Inhibition (tumor growth inhibition) ([1]; Table F, sc tumor, ip days 1, 5, 9, 13, 17, slash = separate experiments): 79%; ILS max (maximum increase in lifespan) [2, 6]: 69%
[Cl][Au-][P+](CCCCCC[P+]([Au-][Cl])(c1ccccc1)c1ccccc1)(c1ccccc1)c1ccccc1 [Compound 6, μ-[1,6-Bis(Diphenylphosphino)Hexane]Bis[Chlorogold(I)]] |  | 2 |  |  |  | ILS (maximum increase in lifespan) (P388 leukemia; mouse, in vivo, ip): 40% and 35%; MTD (maximally tolerated dose) (P388 leukemia; mouse, in vivo, ip): 4 mg/kg
C(=C/P(c1ccccc1)c1ccccc1)/P(c1ccccc1)c1ccccc1 [Compound 34, cis-bis(1,2-diphenylphosphino)ethylene] |  |  | 25 | 24 |  | ILS max (maximum increase in lifespan) ([2]; Table D): 57%; activity in the ip M5076 reticulum cell sarcoma assay [2]: good activity; MTD [4]: 5 mg/kg
[Cl][Au][PH](CC[PH]([Au][Cl])(C1CCCCC1)C1CCCCC1)(C1CCCCC1)C1CCCCC1 [Compound 22, μ-[1,2-Bis(Dicyclohexylphosphino)Ethane]Bis[Chlorogold(I)]] |  | 14 |  |  | 16 | MTD (maximally tolerated dose) ([2]; Table C): 8 mg/kg; ILS max (maximum increase in lifespan) [2, 6]: 27%
c1ccc(P(c2ccccc2)c2ccccc2P(c2ccccc2)c2ccccc2)cc1 [Compound 40, Bis(1,2-Diphenylphosphino)Benzene] |  |  | 28 | 32 |  | 
c1ccc(P(CCCP(c2ccccc2)c2ccccc2)c2ccccc2)cc1 [Compound 37, bis(1,3-diphenylphosphino)propane] |  |  | 72 | 32 |  | 
[Cl][Au-][P+](CCCCC[P+]([Au-][Cl])(c1ccccc1)c1ccccc1)(c1ccccc1)c1ccccc1 [Compound 5, μ-[1,5-Bis(Diphenylphospinio)Pentane]Bis[Chlorogold(I)]] | 55% | 2 |  |  | 4 | 
[2H]c1c([2H])c([2H])c(P(CCP(c2c([2H])c([2H])c([2H])c([2H])c2[2H])c2c([2H])c([2H])c([2H])c([2H])c2[2H])c2c([2H])c([2H])c([2H])c([2H])c2[2H])c([2H])c1[2H] [Compound 43, 1,2-Ethanediyl-bis[di(phenyl-d5)phosphine]] |  |  | 50 | 24 |  | 
CC(CP(c1ccccc1)c1ccccc1)P(c1ccccc1)c1ccccc1 (centres unmarked) [Compound 35, Bis(1,2-diphenylphosphino)propane] |  |  | 50 | 32 |  | MTD (maximally tolerated dose) ([2]; Table D): 24 mg/kg; ILS max (maximum increase in lifespan) ([2]; Table D): 62%
[Cl][Au][PH](CCCC[PH]([Au][Cl])(c1ccccc1)c1ccccc1)(c1ccccc1)c1ccccc1 [Compound 4, μ-[1,4-Bis(Diphenylphosphino)Butane]Bis[Chlorogold(I)]] | 45% and 40% | 3 |  |  |  | MTD (maximally tolerated dose) (P388 leukemia; mouse, in vivo, ip): 6 mg/kg
[Cl][Au]([Cl])([Cl])[PH](CC[PH](c1ccccc1)(c1ccccc1)[Au]([Cl])([Cl])[Cl])(c1ccccc1)c1ccccc1 [Compound 12, μ-[1,2-Bis(Diphenylphosphino)Ethane]Bis[Trichlorogold(III)]] | 95% and 62% | 4 |  |  | 16 | MTD (maximally tolerated dose) ([2]; Table C): 8 mg/kg; ILS max (maximum increase in lifespan) [2, 6]: 74%
[Cl][Au][PH](CCC[PH]([Au][Cl])(c1ccccc1)c1ccccc1)(c1ccccc1)c1ccccc1 [Compound 3, μ-[1,3-Bis(Diphenylphosphino)Propane]Bis[Chlorogold(I)]] |  | 2 |  |  | 8 | MTD (maximally tolerated dose) ([2]; Table C): 5 mg/kg; ILS max (maximum increase in lifespan) [2, 6]: 69%; activity in the ip M5076 reticulum cell sarcoma assay [2]: good activity
[Cl][Au][PH](C=C[PH]([Au][Cl])(c1ccccc1)c1ccccc1)(c1ccccc1)c1ccccc1 [Compound 7, μ-[Cis-1,2-Bis(Diphenylphosphino)Ethylene]Bis[Chlorogold(I)]] | 105% and 77% | 7 |  |  | 4 | MTD (maximally tolerated dose) ([2]; Table C): 3 mg/kg; ILS max (maximum increase in lifespan) [2, 6]: 90%; activity in the ip M5076 reticulum cell sarcoma assay [2]: good activity
[Cl][Au][PH](C[PH]([Au][Cl])(c1ccccc1)c1ccccc1)(c1ccccc1)c1ccccc1 [Compound 1, μ-[1,3-Bis(Diphenylphosphino)Methane]Bis[Chlorogold(I)]] | 62% and 50% | 6 |  |  | 50 | 
C[C@H](CP(c1ccccc1)c1ccccc1)P(c1ccccc1)c1ccccc1 [Compound 36, R-(+)-bis(1,2-diphenylphosphino)propane] |  |  | 50 | 32 |  | 
C(=C\P(c1ccccc1)c1ccccc1)/P(c1ccccc1)c1ccccc1 [Compound 41, Trans-bis(1,2-diphenylphosphino)ethylene] |  |  |  | 128 |  | 
